Source: ChEMBL document CHEMBL1135556, “alpha-bromoacetophenone derivatives as neutral protein tyrosine phosphatase inhibitors: structure-Activity relationship” (Bioorg Med Chem Lett, 2002)

Key:
[1] = target: Tyrosine-protein phosphatase non-receptor type 6, SHP-1 (Homo sapiens) (UniProt P29350); test: First-order rate constant (K inact) for conversion of the ExI complex (SHP 1 protein -inhibitor complex) into the covalent adduct, EI was determined using PNP as substrate
[2] = target: Tyrosine-protein phosphatase non-receptor type 6, SHP-1 (Homo sapiens) (UniProt P29350); test: Dissociation constant towards SHP 1 receptor-inhibitor complex was determined using PNP as substrate
[3] = target: Tyrosine-protein phosphatase non-receptor type 6, SHP-1 (Homo sapiens) (UniProt P29350); test: Ratio between dissociation constant and First-order rate constant (K inact / Ki) was determined
[4] = target: Tyrosine-protein phosphatase non-receptor type 6, SHP-1 (Homo sapiens) (UniProt P29350); test: Dissociation constant towards SHP-1 receptor-inhibitor complex was determined using PNP as substrate
[5] = target: Tyrosine-protein phosphatase non-receptor type 6, SHP-1 (Homo sapiens) (UniProt P29350); test: First-order rate constant (K inact) for conversion of the ExI complex (SHP-1 -inhibitor complex) into the covalent adduct, EI was determined using PNP as substrate
[6] = target: T1, Tyrosine-protein phosphatase non-receptor type 6 (Homo sapiens, UniProt P29350)
[7] = target: T1, Tyrosine-protein phosphatase non-receptor type 6; test: Dissociation constant towards SHP 1 receptor-inhibitor complex was determined using PNP as substrate
[8] = target: T2, Tyrosine-protein phosphatase non-receptor type 1 (Homo sapiens) (UniProt P18031); test: First-order rate constant (K inact) for conversion of the ExI complex (SHP 1 receptor -inhibitor complex) into the covalent adduct, EI was determined using PNP as substrate
T2 sequence (whole entry): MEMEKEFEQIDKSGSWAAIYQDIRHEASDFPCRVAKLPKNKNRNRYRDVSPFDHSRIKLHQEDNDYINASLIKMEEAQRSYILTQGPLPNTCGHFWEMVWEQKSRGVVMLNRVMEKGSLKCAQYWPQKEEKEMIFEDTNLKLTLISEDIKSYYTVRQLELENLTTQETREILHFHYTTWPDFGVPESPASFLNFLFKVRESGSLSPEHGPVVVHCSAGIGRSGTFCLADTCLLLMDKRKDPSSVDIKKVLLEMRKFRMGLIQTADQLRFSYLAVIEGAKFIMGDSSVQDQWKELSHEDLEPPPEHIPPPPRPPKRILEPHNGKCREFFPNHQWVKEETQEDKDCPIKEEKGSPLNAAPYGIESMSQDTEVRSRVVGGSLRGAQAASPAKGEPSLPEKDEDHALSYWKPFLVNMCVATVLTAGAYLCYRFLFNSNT

Chain of Tyrosine-protein phosphatase non-receptor type 6, SHP-1 (Homo sapiens) (P29350 whole entry, looked up): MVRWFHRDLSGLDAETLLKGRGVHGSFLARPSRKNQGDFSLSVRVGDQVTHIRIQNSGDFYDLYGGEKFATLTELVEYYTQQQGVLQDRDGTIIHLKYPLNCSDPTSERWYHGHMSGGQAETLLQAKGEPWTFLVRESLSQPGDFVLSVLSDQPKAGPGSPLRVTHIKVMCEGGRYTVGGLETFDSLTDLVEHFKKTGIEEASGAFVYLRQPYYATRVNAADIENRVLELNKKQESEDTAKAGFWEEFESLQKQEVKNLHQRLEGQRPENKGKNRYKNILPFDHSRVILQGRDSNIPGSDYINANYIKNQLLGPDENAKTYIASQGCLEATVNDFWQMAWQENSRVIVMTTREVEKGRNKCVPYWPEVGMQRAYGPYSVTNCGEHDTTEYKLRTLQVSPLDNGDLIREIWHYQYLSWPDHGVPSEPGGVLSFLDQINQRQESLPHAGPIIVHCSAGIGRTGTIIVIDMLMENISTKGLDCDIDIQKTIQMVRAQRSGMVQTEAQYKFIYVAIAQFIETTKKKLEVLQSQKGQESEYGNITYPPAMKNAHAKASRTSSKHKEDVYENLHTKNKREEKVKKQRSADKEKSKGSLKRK
T1 sequence (P29350 whole entry): as the sequence (P29350 whole entry, looked up) above

Compound | kinact [1] [min⁻¹] | Ki [2] [µM] | Ratio [3] [M⁻¹ min⁻¹] | Ki [4] [µM] | kinact [5] [min⁻¹] | kinact [6] [min⁻¹] | Ki [7] [µM] | kinact [8] [min⁻¹]
O=C(CBr)c1ccc(-c2ccccc2C(=O)O)cc1 | 1 | 220 | 4550 |  |  |  |  | 
O=C(CBr)c1ccc(O)cc1 |  |  | 9300 | 43 | 0.4 |  |  | 
O=C(O)COc1ccc(C(=O)CCl)cc1 |  |  | 710 | 2500 | 1.8 |  |  | 
O=C(CCl)c1ccc(F)cc1 |  |  | 580 | 380 | 0.22 |  |  | 
O=C(CBr)c1ccc(C(F)(F)F)cc1 |  |  | 26000 | 14 | 0.37 |  |  | 
O=C(CCl)c1ccc(F)cc1F |  |  | 120 | 17500 | 2.1 |  |  | 
O=C(CBr)c1ccc2ccccc2c1 |  |  | 20000 | 25 | 0.48 |  |  | 
O=C(CBr)c1ccc(F)cc1 |  |  | 9100 | 56 | 0.51 |  |  | 
O=C(CBr)c1cccc2ccccc12 |  |  | 9400 | 92 | 0.86 |  |  | 
O=C(CBr)c1ccccc1 |  |  | 7100 | 81 | 0.58 |  |  | 
O=C(CCl)c1ccccc1 [PHENACYL CHLORIDE] |  |  | 430 | 480 | 0.21 |  |  | 
NC(N)=NCCCC(NC(=O)[C@H](CCCN=C(N)N)NC(=O)CNC(=O)COc1ccc(C(=O)CBr)cc1)C(=O)O (some centres not stated) |  | 760 |  |  |  |  |  | 
O=C(O)CCC(NC(=O)[C@H](CCC(=O)O)NC(=O)CNC(=O)COc1ccc(C(=O)CBr)cc1)C(=O)O (some centres not stated) |  |  |  | 2.8 | 1.2 | 6.6 | 29 | 
O=C(CCl)c1ccc(O)c(O)c1 |  |  | 420 | 1400 | 0.59 |  |  | 
O=C(O)COc1ccc(C(=O)CBr)cc1 | 1.8 | 193 | 9300 |  |  |  |  | 
N=C(N)NCCCC(NC(=O)[C@H](CCCNC(=N)N)NC(=O)CNC(=O)COc1ccc(C(=O)CBr)cc1)C(=O)O (some centres not stated) |  |  | 6300 |  |  |  |  | 4.8
O=C(CBr)c1ccc(-c2ccccc2)cc1 |  |  | 41 | 14 | 0.59 |  |  | 
O=C(CBr)c1ccccn1 |  |  | 7500 | 173 | 1.3 |  |  | 
